Measurements taken from ChEMBL document CHEMBL4411299, “A class of novel tubulin polymerization inhibitors exert effective anti-tumor activity via mitotic catastrophe” (Eur J Med Chem, 2019).
Calls of active or inactive are those of the source. No cut-off for these calls is given here.

What was measured:
HepG2 = test: Antiproliferative activity against human HepG2 cells after 48 hrs by MTT assay; assay type: functional; conditions: HepG2, 48 h
A549 = test: Antiproliferative activity against human A549 cells after 48 hrs by MTT assay; assay type: functional; conditions: A549, 48 h
HT-29 = test: Antiproliferative activity against human HT-29 cells after 48 hrs by MTT assay; assay type: functional; conditions: HT-29, 48 h
HeLa = test: Antiproliferative activity against human HeLa cells after 48 hrs by MTT assay; assay type: functional
MDA-MB-231 = test: Antiproliferative activity against human MDA-MB-231 cells after 48 hrs by MTT assay; assay type: functional; conditions: MDA-MB-231, 48 h
A2780 = test: Antiproliferative activity against human A2780 cells after 48 hrs by MTT assay; assay type: functional; conditions: A2780, 48 h
Tubulin (Homo sapiens) [1] = molecular target: T1, Tubulin (Homo sapiens) (UniProt P68371+Q9H4B7+P0DPH7+P68366+Q13509+Q71U36+P04350+Q3ZCM7+P07437+P68363+Q9BQE3+Q6PEY2+Q13885+Q9BVA1+Q9BUF5); test: Induction of tubulin polymerization in human HeLa cells assessed as increase in density of microtubule polymerization at 0.05 after 12 hrs by DAPI staining-based confocal fluorescence microscopic analysis; assay type: cell-based
Tubulin (Homo sapiens) [2] = molecular target: T1, Tubulin (Homo sapiens); test: Induction of tubulin polymerization in human HeLa cells assessed as induction of long thick microtubule bundles at 0.05 after 12 hrs by DAPI staining-based confocal fluorescence microscopic analysis; assay type: cell-based

SMILES	GI50 (HepG2)	GI50 (A549)	GI50 (HT-29)	GI50 (HeLa)	GI50 (MDA-MB-231)	GI50 (A2780)	Activity (Tubulin (Homo sapiens) [1])	Activity (Tubulin (Homo sapiens) [2])
COC(=O)N1N=C(c2ccccc2)CC1c1ccc(OC)c(O)c1 (stereo not given)	9.81 µM	8.93 µM	3.5 µM	7.52 µM	14.5 µM	4.96 µM	–	–
COC(=O)N1N=C(c2ccccc2)CC1c1ccc(OC)c(OC)c1 (stereo not given)	9.15 µM	7.32 µM	10.7 µM	5.48 µM	8.94 µM	29.9 µM	–	–
COC(=O)N1N=C(c2ccc(OC)cc2)CC1c1cc(OC)c(OC)c(OC)c1 (stereo not given)	1.71 µM	3.4 µM	2.55 µM	2.59 µM	1.99 µM	5 µM	–	–
CC(=O)O[C@H]1C(=O)[C@@]2(C)[C@H]([C@H](OC(=O)c3ccccc3)[C@]3(O)C[C@H](OC(=O)[C@H](O)[C@@H](NC(=O)c4ccccc4)c4ccccc4)C(C)=C1C3(C)C)[C@]1(OC(C)=O)CO[C@@H]1C[C@@H]2O	–	–	–	–	–	–	Active	Active
COC(=O)N1N=C(c2ccccc2)CC1c1c(OC)cc(OC)cc1OC (stereo not given)	7.49 µM	5.88 µM	> 10 µM	3.49 µM	10.6 µM	> 10 µM	–	–
CCOC(=O)N1N=C(c2ccccc2)CC1c1cc(OC)c(OC)c(OC)c1 (stereo not given)	5.95 µM	6.68 µM	8.92 µM	8.23 µM	5.61 µM	6.72 µM	–	–
COC(=O)N1N=C(c2cccc(O)c2)CC1c1cc(OC)c(OC)c(OC)c1 (stereo not given)	0.65 µM	3.17 µM	1.35 µM	1.97 µM	0.74 µM	0.81 µM	–	–
COc1cc(C2CC(c3cccc(O)c3)=NN2C(=O)OCc2ccccc2)cc(OC)c1OC (stereo not given)	> 10 µM	> 10 µM	> 10 µM	> 10 µM	> 10 µM	> 10 µM	–	–
CCCOC(=O)N1N=C(c2cccc(OC)c2)CC1c1cc(OC)c(OC)c(OC)c1 (stereo not given)	> 10 µM	> 10 µM	> 10 µM	> 10 µM	12.5 µM	> 10 µM	–	–
COC(=O)N1N=C(c2ccccc2)CC1c1cc(OC)c(OC)cc1OC (stereo not given)	6.53 µM	5.32 µM	14.9 µM	2.47 µM	> 10 µM	> 10 µM	–	–
CCOC(=O)N1N=C(c2cccc(OC)c2)CC1c1cc(OC)c(OC)c(OC)c1 (stereo not given)	5.82 µM	5.92 µM	7.86 µM	4.11 µM	9.1 µM	7.3 µM	–	–
COC(=O)N1N=C(c2ccccc2)CC1c1cc(OC)c(OC)c(OC)c1 (stereo not given)	3.95 µM	2.88 µM	6.26 µM	2.18 µM	1.08 µM	2.77 µM	–	–
CCOC(=O)N1N=C(c2ccc(OC)cc2)CC1c1cc(OC)c(OC)c(OC)c1 (stereo not given)	9.4 µM	4.69 µM	6.73 µM	8.71 µM	2.66 µM	9.27 µM	–	–
CCCOC(=O)N1N=C(c2ccc(OC)cc2)CC1c1cc(OC)c(OC)c(OC)c1 (stereo not given)	> 10 µM	> 10 µM	12.7 µM	> 10 µM	20.4 µM	11.7 µM	–	–
